The IC50 is the point on the concentration scale where inhibition reaches its midpoint. In general, inhibition refers to the drop in the measured response relative to a control, in per cent.

Holding throughout (type): cell-based
Assay [1] deals with AKT protein phosphorylated on serine 473 (pAKT-S473) in PC3 human prostate carcinoma cells. Put plainly: pAKT expression in PC3 human prostate carcinoma cells measured by western blotting (test A). The note with it: PC-3, 1 to 2 h incubation, absolute IC50. Here is the method: The inhibitory activity of the molecules on AKT phosphorylation is measured either by western blotting using the technique described below, or by the MSD Multi-spot Biomarker detection technique from Meso Scale Discovery also described below.
Study of pAKT Expression in PC3 Human Prostate Carcinoma Cells Measured by Western Blotting (test A):
This test is based on measuring the expression of the AKT protein phosphorylated on serine 473. The phosphorylation of AKT (pAKT) is measured by western blotting in the PC3 human prostate carcinoma line (ATCC CRL-1435), using an antibody that specifically recognises pAKT-S473.
On day 1, the PC3 cells are seeded into 6-well plates (TPP, #92006) at the concentration of 0.8×10^6 cells/well in 1800 μl of DMEM medium (DMEM Gibco #11960-044) containing 10% of foetal calf serum (SVF Gibco, #10500-056) and 1% glutamine (L-Glu Gibco #25030-024), and incubated at 37° C., 5% CO2, overnight.
On day 2, the cells are incubated in the presence or absence of the test products for 1 to 2 hours at 37° C. in the presence of 5% CO2. The molecules, diluted in dimethyl sulphoxide (DMSO Sigma #D2650), are added from a 10-times concentrated stock solution, the final percentage of DMSO being 0.1%. The molecules are tested either at a single concentration of less than or equal to 10 μM, or at increasing concentrations in a range that can extend from less than 1 nM to 10 μM.
After this incubation, the cells are lysed for the preparation of the proteins. After the culture medium has been drawn off, the cells are rinsed with 1 ml of PBS (DPBS Gibco, #14190-094), recovered by scraping in 200 μl of complete HNTG buffer and transferred into a 96-well plate (Greiner #651201), and lysed for 1 h on ice. The HNTG buffer is composed of the following mixture: 50 mM hepes, 150 mM NaCl, 1% triton, 10% glycerol, with extemporaneous addition of one Mini Protease Inhibitor Cocktail tablet (Roche 1836153) and of one Phosphatase Inhibitor Cocktail tablet (Roche104906837001) per 10 ml of buffer.
The lysate is centrifuged for 10 min at 6000 rpm. 155 μl of supernatant are recovered. 150 μl are incubated for denaturation for 5 min at 95° C. in the presence of 4× NuPAGE LDS Sample Buffer diluted 4-fold (InVitrogen ref NP0007) and of 10× NuPAGE Sample Reducing Agent diluted 10-fold (InVitrogen ref NP0009). These samples are then frozen at −20° C. 5 μl are assayed by the microBCA technique according to the technical bulletin of the MicroBCA Protein Assay Kit (Pierce #23235).
For protein separation, 20 μg of proteins are loaded on to a NU-PAGE 4-12% Bis Tris Gel 12 well (InVitrogen ref NP0322BOX) and the migration is carried out for 1 h 30 in 20× NU-PAGE MOPS SDS Running Buffer diluted 20-fold (InVitrogen ref NP0001), at 150 volts.
The gel is then transferred on to an Invitrolon PVDF membrane (Invitrogen #LC2007) permeabilised before and after a few seconds in ethanol (Ethanol Fischer Scientific #E/0600DF/15).
The transfer is carried out in a Biorad tank at 30 volts overnight or at 60 volts for 3 hours, in the presence of 20× NUPAGE Transfer Buffer diluted 20-fold (InVitrogen ref NP0006).
The membrane is then saturated in saturating solution composed of TBS (10× Tris Buffered Saline, Sigma #T5912, diluted 10-fold), 0.1% Tween 20 (Sigma #P5927) and 3% BSA (Bovine Albumin Serum Fraction V, Sigma #A4503) for 6 h after overnight transfer or else for 1 h after transfer for a period of 3 h.
The primary antibodies are diluted to 1/1000 for the anti-phospho AKT-Ser473 antibody (1931-12, rabbit monoclonal, cat#4058 from Cell Signaling Technology Abcam), in saturating solution composed of PBS, 0.1% Tween 20 and 3% BSA, and then shaken overnight at 4° C.
Two rinses for 5 min in washing solution composed of TBS and 0.1% Tween 20 are carried out before hybridisation of the secondary antibodies. […]

Assay [2] concerns translocation of the LC3 protein in Hela GFP-LC3 cells. Put plainly: Translocation of the LC3 protein in Hela human cells measured by image analysis cytometry (test C, autophagy). The conditions noted are these: Homo sapiens, HeLa, 2 h, EBSS + 10 μM hydroxychloroquine, cells with LC3 granulations, absolute IC50. In a few lines:
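HeLa clone stably expressing GFP-LC3, starved in EBSS with 10 μM hydroxychloroquine plus compound (10 nM to 1 μM range, 0.1% DMSO) for 2 h at 37 °C. After PFA fixation and Hoechst staining, LC3 translocation read by image analysis cytometry; IC50 from dose-response curves, mean of 2 independent experiments.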

Assay [3] concerns P. falciparum (highly chloroquine-resistant strain Fcm29-Cameroon). The experiment in a line: Antimalarial activity test (radioactive micromethod of Desjardins, tritiated hypoxanthine incorporation). The conditions noted are these: Plasmodium falciparum, Erythrocyte, infected human erythrocytes, 48 h. As to the method: Antimalarial Activity Test
The antimalarial activity tests are carried out according to the radioactive micromethod of Desjardins (R. E. Desjardins, C. J. Canfield, J. D. Haynes, J. D. Chulay, Antimicrob. Agents Chemother., 1979, 16, 710-718). The assays are carried out in 96-well microplates (Test Plates Ref. 92696, Techno Plastic Products Ag, Zollstrasse 155, CH-8219 Trasadingen). The P. falciparum strains are cultured in solutions of RPMI 1640 supplemented with 5% of human serum with a haematocrit at 2% and a blood parasite concentration at 1.5%. For each assay, the parasites are incubated with selected concentrations of drugs for 48 h at 37° C. in a humid atmosphere and at 5% CO2. Artemisinin, artesunate and also chloroquine diphosphate are used as reference molecules. The first dilution of the drug is prepared at 1 mg/ml in dimethyl sulphoxide. The range of dilutions of the successive daughter solutions is also prepared in dimethyl sulphoxide. Each daughter dilution is subsequently diluted to 1/50 in RPMI 1640 supplemented with 5% of human serum, all the dilutions being carried out at 37° C. These dilutions are then added to the parasites in culture in the microplates. After addition of the drug, the parasites are in culture in RPMI 1640 containing 5% of human serum and 1% of dimethyl sulphoxide. The parasite growth is measured by incorporation of tritiated hypoxanthine (added 24 h after the beginning of the exposure to the drug) compared with the incorporation in the absence of drug.
The activity of the product is translated to % inhibition of the growth of P. falciparum (highly chloroquine-resistant strain Fcm29-Cameroon) at 1 μM and 0.1 μM in an in vitro test using infected human erythrocytes.

In the case of `CC(c1ccccc1)N1c2nc(N3CCOCC3)cc(=O)n2C[C@@]1(C)C(F)(F)F` (mixture of isomers) [Example 16, (2S)-2-Methyl-7-(morpholin-4-yl)-1-((R) and (5)-1-phenylethyl)-2-(trifluoromethyl)-2,3-dihydroimidazo[1,2-a]pyrimidin-5(1H)-one], it took 79 nM to reach half-maximal inhibition in assay [1] (IC50).
For the compound `COc1ccc(CCN2c3nc(N4CCOCC4)cc(=O)n3CC2(C)C(F)(F)F)cc1` (racemic) [Example 2, (R,S)-1-[2-(4-methoxyphenyl)ethyl]-2-methyl-7-(morpholin-4-yl)-2-(trifluoromethyl)-2,3-dihydroimidazo[1,2-a]pyrimidin-5(1H)-one], the IC50 is 145 nM in assay [2] and 324 nM in assay [1].
For `CC(Cc1ccccc1)N1c2nc(N3CCOCC3)cc(=O)n2C[C@@]1(C)C(F)(F)F` (single isomer, unassigned) [Example 12, (2S)-2-Methyl-1-((R) or (S)-1-methyl-2-phenylethyl)-7-morpholin-4-yl-2-trifluoromethyl-2,3-dihydro-1H-imidazo[1,2-a]pyrimidin-5-one], the IC50 turned out to be 194 nM in assay [2] and 77 nM in assay [1].
The compound `CCC(c1ccccc1)N1c2nc(N3CCOCC3)cc(=O)n2C[C@@]1(C)C(F)(F)F` (single isomer, unassigned) [Example 14, (S)-2-Methyl-7-morpholin-4-yl-1-((S) or (R)-1-phenylpropyl)-2-trifluoromethyl-2,3-dihydro-1H-imidazo[1,2-a]pyrimidin-5-one] displayed an IC50 in assay [1] of 174 nM.
Regarding `C[C@@]1(C(F)(F)F)Cn2c(nc(N3CCOCC3)cc2=O)N1Cc1ccccc1` [Example 3, (S)-1-Benzyl-2-methyl-7-morpholin-4-yl-2-trifluoromethyl-2,3-dihydro-1H-imidazo[1,2-a]pyrimidin-5-one], the IC50 in assay [2] was 493 nM. Also, the half-inhibitory concentration (IC50) in assay [1] worked out at 634 nM. In assay [3], the inhibition at 0.1 µM is 15% and the inhibition at 1 µM is 95%.
On to `C[C@@]1(C(F)(F)F)Cn2c(nc(N3CCOCC3)cc2=O)N1CCc1ccccc1` [Example 4, (S)-2-Methyl-7-morpholin-4-yl-1-phenethyl-2-trifluoromethyl-2,3-dihydro-1H-imidazo[1,2-a]pyrimidin-5-one], for which the IC50 in assay [2] stood at 107 nM. In assay [1], this compound returned an IC50 of 25 nM. For the same compound, in assay [3], the inhibition at 0.1 µM is 54% and the inhibition at 1 µM worked out at 97%.
`C[C@@]1(C(F)(F)F)Cn2c(nc(N3CCOCC3)cc2=O)N1CCCc1ccccc1` [Example 5, (S)-2-Methyl-7-morpholin-4-yl-1-(3-phenylpropyl)-2-trifluoromethyl-2,3-dihydro-1H-imidazo[1,2-a]pyrimidin-5-one]: the IC50 came out at 73 nM in assay [2] and 30 nM in assay [1].
On the same counts, the results for `C[C@@]1(C(F)(F)F)Cn2c(nc(N3CCOCC3)cc2=O)N1CCOc1ccccc1` [Example 6, (S)-2-Methyl-7-morpholin-4-yl-1-(2-phenoxyethyl)-2-trifluoromethyl-2,3-dihydro-1H-imidazo[1,2-a]pyrimidin-5-one] are 81 nM and 1640 nM.
Consider `C[C@@H](CN1c2nc(N3CCOCC3)cc(=O)n2C[C@@]1(C)C(F)(F)F)c1ccccc1` [Example 8, (S)-2-Methyl-7-morpholin-4-yl-1-((R)-2-phenylpropyl)-2-trifluoromethyl-2,3-dihydro-1H-imidazo[1,2-a]pyrimidin-5-one], for which the values for the IC50 in assay [2] and in assay [1] were 13 nM and 15 nM, respectively.
Regarding `C[C@@]1(C(F)(F)F)Cn2c(nc(N3CCOCC3)cc2=O)N1C[C@@H](O)c1ccccc1` [Example 10], the IC50 in assay [2] came out at 31 nM. Further, the IC50 in assay [1] came to 16 nM. Besides, in assay [3], the inhibition at 0.1 µM amounted to 38% and the inhibition at 1 µM was determined as 97%.
Take `C[C@@]1(C(F)(F)F)Cn2c(nc(N3CCOCC3)cc2=O)N1CCc1ccc(N2CCOCC2)cc1` [Example 15, (S)-2-Methyl-7-morpholin-4-yl-1-[2-(4-morpholin-4-ylphenyl)ethyl]-2-trifluoromethyl-2,3-dihydro-1H-imidazo[1,2-a]pyrimidin-5-one]: in assay [2], the IC50 was 72 nM. This compound displayed a 50% inhibitory concentration (IC50) in assay [1] of 121 nM. Moreover, in assay [3], the inhibition at 0.1 µM is 39% and the inhibition at 1 µM was determined as 101%.

The record behind these values is patent US8828997B2, “2,3-dihydro-1H-imidazo(1,2-a)pyrimidin-5-one derivatives, preparation thereof, and pharmaceutical use thereof” (Sanofi, priority 2009, dated 2014).
